The target in assay [1] is T1, glutathione S-transferase (GST)-fused full-length human Syk protein (Homo sapiens, UniProt P43405).
T1 construct: (GST)-fused full-length human Syk protein; GST (glutathione S-transferase); purchased Carna Biosciences
Kind of assay: Syk enzyme assay. The class given is biochemical. The following applies: Syk enzyme assay, Test Example 1; read-out: IC50 of Syk-inhibitory activity. Put shortly: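 IC50 values come from a time-resolved FRET readout (615 and 665 nm) of substrate phosphorylation, measured after an EDTA stop and 1 h antibody binding. The kinase reaction ran 40 min at room temperature with 27 μM ATP and 0.4 μM biotin-peptide, following a 15 min compound preincubation with baculovirus-made GST-full-length human Syk.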

The subject of assay [2] is THP-1 cells. As to the kind of experiment: TNFα generation assay. It counts as cell-based, human. The following applies: Homo sapiens, THP-1, THP-1 cells; Table 22; read-out: IC50 in TNFα generation assay. An outline of the steps:
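Secreted TNFα in supernatant quantified by ELISA or AlphaLISA after 7 h culture on human IgG-coated wells (10 μg/ml coating). Cells were IFN-γ-differentiated THP-1 (10 ng/ml, 2 days), exposed to compound for 30 min at room temperature before plating.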

With `CCOc1ncc(Nc2nc(N[C@@H]3CCCC[C@@H]3N)c(F)cc2C(N)=O)cc1C` [Example 006-497, 6-(((1R,2S)-2-aminocyclohexyl)amino)-2-((6-ethoxy-5-methylpyridin-3-yl)amino)-5-fluoronicotinamide], the IC50 in assay [1] is < 10 nM; in assay [2] it was 65 to 130 nM.
For `COCCOc1ncc(Nc2nc(N[C@@H]3CCCC[C@@H]3N)c(F)cc2C(N)=O)cc1C` [Example 006-498, 6-(((1R,2S)-2-aminocyclohexyl)amino)-5-fluoro-2-((6-(2-methoxyethoxy)-5-methylpyridin-3-yl)amino)nicotinamide], the IC50 is < 10 nM in assay [1] and 65 to 130 nM in assay [2].
For `Cc1cc(Nc2nc(N[C@@H]3CCCC[C@@H]3N)c(F)cc2C(N)=O)cnc1-n1cccn1` [Example 006-499, 6-(((1R,2S)-2-aminocyclohexyl)amino)-5-fluoro-2-((5-methyl-6-(1H-pyrazol-1-yl)pyridin-3-yl)amino)nicotinamide] the same measures were 10 to 50 nM and 130 to 200 nM.
For `Cc1cc(Nc2nc(N[C@@H]3CCCC[C@@H]3N)c(F)cc2C(N)=O)cnc1-n1nccn1` [Example 006-500, 6-(((1R,2S)-2-aminocyclohexyl)amino)-5-fluoro-2-((5-methyl-6-(2H-1,2,3-triazol-2-yl)pyridin-3-yl)amino)nicotinamide], the IC50 was 10 to 50 nM in assay [1] and 65 to 130 nM in assay [2].
Turning to `Cc1cc(Nc2nc(N[C@@H]3CCCC[C@@H]3N)c(F)cc2C(N)=O)cnc1-n1ccnn1` [Example 006-501, 6-(((1R,2S)-2-aminocyclohexyl)amino)-5-fluoro-2-((5-methyl-6-(1H-1,2,3-triazol-1-yl)pyridin-3-yl)amino)nicotinamide], the IC50 lay in the range of 10 to 50 nM in assay [1] and 130 to 200 nM in assay [2].
On the same counts, the results for `CCc1ncc(Nc2nc(N[C@@H]3CCCC[C@@H]3N)c(F)cc2C(N)=O)cc1C` [Example 006-502, 6-(((1R,2S)-2-aminocyclohexyl)amino)-2-((6-ethyl-5-methylpyridin-3-yl)amino)-5-fluoronicotinamide] are < 10 nM and 65 to 130 nM.
For the compound `Cc1cc(Nc2nc(N[C@@H]3CCCC[C@@H]3N)c(F)cc2C(N)=O)cnc1C1CC1` [Example 006-503, 6-(((1R,2S)-2-aminocyclohexyl)amino)-2-((6-cyclopropyl-5-methylpyridin-3-yl)amino)-5-fluoronicotinamide], the results for the IC50 in assay [1] and in assay [2] were < 10 nM and 65 to 130 nM, respectively.
`CCc1nn(C)c2ccc(Nc3nc(N[C@H](CC4CC4)[C@H](C)N)c(F)cc3C(N)=O)cc12` [Example 006-505, 6-(((2R,3S)-3-amino-1-cyclopropylbutan-2-yl)amino)-2-((3-ethyl-1-methyl-1H-indazol-5-yl)amino)-5-fluoronicotinamide]: the IC50 was < 10 nM in assay [1] and 130 to 200 nM in assay [2].
For `CCc1nn(CC)c2ccc(Nc3nc(N[C@H](CC4CC4)[C@H](C)N)c(F)cc3C(N)=O)cc12` [Example 006-506, 6-(((2R,3S)-3-amino-1-cyclopropylbutan-2-yl)amino)-2-((1,3-diethyl-1H-indazol-5-yl)amino)-5-fluoronicotinamide] the same measures were < 10 nM and 130 to 200 nM.
Regarding `CC(C)c1nn(C)c2ccc(Nc3nc(N[C@H](CC4CC4)[C@H](C)N)c(F)cc3C(N)=O)cc12` [Example 006-507, 6-(((2R,3S)-3-amino-1-cyclopropylbutan-2-yl)amino)-5-fluoro-2-((3-isopropyl-1-methyl-1H-indazol-5-yl)amino)nicotinamide], the IC50 in assay [1] is < 10 nM; in assay [2], 130 to 200 nM.
On the same counts, the results for `CCn1ncc2c(Nc3nc(N[C@H](CC4CC4)[C@H](C)N)c(F)cc3C(N)=O)cccc21` [Example 006-508, 6-(((2R,3S)-3-amino-1-cyclopropylbutan-2-yl)amino)-2-((1-ethyl-1H-indazol-4-yl)amino)-5-fluoronicotinamide] are < 10 nM and 65 to 130 nM.
For `CCn1nc(F)c2cc(Nc3nc(N[C@H](CC4CC4)[C@H](C)N)c(F)cc3C(N)=O)ccc21` [Example 006-509, 6-(((2R,3S)-3-amino-1-cyclopropylbutan-2-yl)amino)-2-((1-ethyl-3-fluoro-1H-indazol-5-yl)amino)-5-fluoronicotinamide] the same measures were < 10 nM and 65 to 130 nM.
For `C[C@H](N)[C@@H](CC1CC1)Nc1nc(Nc2ccc3c(c2)c(F)nn3CC(F)F)c(C(N)=O)cc1F` [Example 006-510, 6-(((2R,3S)-3-amino-1-cyclopropylbutan-2-yl)amino)-2-((1-(2,2-difluoroethyl)-3-fluoro-1H-indazol-5-yl)amino)-5-fluoronicotinamide] the same measures were < 10 nM and 65 to 130 nM.
Consider `CC(C)C[C@@H](Nc1nc(Nc2ccc3c(c2)c(F)nn3C)c(C(N)=O)cc1F)[C@H](C)N` [Example 006-511, 6-(((2S,3R)-2-amino-5-methylhexan-3-yl)amino)-5-fluoro-2-((3-fluoro-1-methyl-1H-indazol-5-yl)amino)nicotinamide], for which the IC50 in assay [1] was < 10 nM; in assay [2], < 65 nM.
On the same counts, the results for `CCn1nc(F)c2cc(Nc3nc(N[C@H](CC(C)C)[C@H](C)N)c(F)cc3C(N)=O)ccc21` [Example 006-512, 6-(((2S,3R)-2-amino-5-methylhexan-3-yl)amino)-2-((1-ethyl-3-fluoro-1H-indazol-5-yl)amino)-5-fluoronicotinamide] are < 10 nM and 65 to 130 nM.
On the same counts, the results for `CC(C)C[C@@H](Nc1nc(Nc2ccc3c(c2)c(F)nn3CC(F)F)c(C(N)=O)cc1F)[C@H](C)N` [Example 006-513, 6-(((2S,3R)-2-amino-5-methylhexan-3-yl)amino)-2-((1-(2,2-difluoroethyl)-3-fluoro-1H-indazol-5-yl)amino)-5-fluoronicotinamide] are < 10 nM and 65 to 130 nM.
On the same counts, the results for `C[C@H](N)[C@H](Nc1nc(Nc2ccc(N3CCOCC3)nc2)c(C(N)=O)cc1F)C1CC1` [Example 006-515, 6-(((1R,2S)-2-amino-1-cyclopropylpropyl)amino)-5-fluoro-2-((6-morpholinopyridin-3-yl)amino)nicotinamide] are < 10 nM and 130 to 200 nM.
With `CCn1ncc2cc(Nc3nc(N[C@H](c4ccccc4)[C@H](C)N)c(F)cc3C(N)=O)ccc21` [Example 006-516, 6-(((1R,2S)-2-amino-1-phenylpropyl)amino)-2-((1-ethyl-1H-indazol-5-yl)amino)-5-fluoronicotinamide], the IC50 in assay [1] is < 10 nM; in assay [2] it was < 65 nM.
For `COCCOc1ncc(Nc2nc(N[C@@H]3CCCC[C@@H]3N)c(F)cc2C(N)=O)cc1-n1nccn1` [Example 006-517, 6-(((1R,2S)-2-aminocyclohexyl)amino)-5-fluoro-2-((6-(2-methoxyethoxy)-5-(2H-1,2,3-triazol-2-yl)pyridin-3-yl)amino)nicotinamide] the same measures were < 10 nM and 65 to 130 nM.
Turning to `CCn1ncc2c(Nc3nc(N[C@H](CC(C)C)[C@H](C)N)c(F)cc3C(N)=O)cccc21` [Example 006-519, 6-(((2S,3R)-2-amino-5-methylhexan-3-yl)amino)-2-((1-ethyl-1H-indazol-4-yl)amino)-5-fluoronicotinamide], the IC50 in assay [1] is < 10 nM; in assay [2], 65 to 130 nM.
On the same counts, the results for `Cc1nn(C)c2ccc(Nc3nc(N[C@H](CC(C)C)[C@H](C)N)c(F)cc3C(N)=O)cc12` [Example 006-520, 6-(((2S,3R)-2-amino-5-methylhexan-3-yl)amino)-2-((1,3-dimethyl-1H-indazol-5-yl)amino)-5-fluoronicotinamide] are < 10 nM and < 65 nM.
Regarding `CCn1nc(C)c2cc(Nc3nc(N[C@H](CC(C)C)[C@H](C)N)c(F)cc3C(N)=O)ccc21` [Example 006-521, 6-(((2S,3R)-2-amino-5-methylhexan-3-yl)amino)-2-((1-ethyl-3-methyl-1H-indazol-5-yl)amino)-5-fluoronicotinamide], the IC50 in assay [1] was < 10 nM; in assay [2], 65 to 130 nM.
On to `Cc1nn(CC(F)F)c2ccc(Nc3nc(N[C@H](CC(C)C)[C@H](C)N)c(F)cc3C(N)=O)cc12` [Example 006-522, 6-(((2S,3R)-2-amino-5-methylhexan-3-yl)amino)-2-((1-(2,2-difluoroethyl)-3-methyl-1H-indazol-5-yl)amino)-5-fluoronicotinamide], for which the IC50 is < 10 nM in assay [1] and < 65 nM in assay [2].
As to `CC[C@@H](Nc1nc(Nc2cccc3c2cnn3CC)c(C(N)=O)cc1F)[C@H](C)N` [Example 006-523, 6-(((2S,3R)-2-aminopentan-3-yl)amino)-2-((1-ethyl-1H-indazol-4-yl)amino)-5-fluoronicotinamide], the figures for the IC50 in assay [1] and in assay [2] were < 10 nM and < 65 nM, respectively.
With `CC[C@@H](Nc1nc(Nc2ccc3c(c2)c(C)nn3C)c(C(N)=O)cc1F)[C@H](C)N` [Example 006-524, 6-(((2S,3R)-2-aminopentan-3-yl)amino)-2-((1,3-dimethyl-1H-indazol-5-yl)amino)-5-fluoronicotinamide], the figures for the IC50 in assay [1] and in assay [2] were < 10 nM and < 65 nM, respectively.
On the same counts, the results for `CC[C@@H](Nc1nc(Nc2ccc3c(c2)c(C)nn3CC)c(C(N)=O)cc1F)[C@H](C)N` [Example 006-525, 6-(((2S,3R)-2-aminopentan-3-yl)amino)-2-((1-ethyl-3-methyl-1H-indazol-5-yl)amino)-5-fluoronicotinamide] are < 10 nM and 65 to 130 nM.
